Columns and labels:
[1] = biological target: Sodium-dependent serotonin transporter (Homo sapiens, UniProt P31645); experiment: Displacement of [3H]citalopram from human SERT expressed in HEK293 cells; type: cell-based
[2] = biological target: Sodium-dependent dopamine transporter (Homo sapiens, UniProt Q01959); experiment: Displacement of [125I]RTI55 from human DAT expressed in HEK293 cells; type: cell-based
[3] = biological target: Serotonin and norepinephrine transporters (SERT/NET) (Homo sapiens, UniProt P31645+P23975); experiment: Selectivity of human NET over human SERT expressed in HEK293 cells; type: cell-based
[4] = biological target: Sodium-dependent noradrenaline transporter (Homo sapiens, UniProt P23975); experiment: Displacement of [3H]nisoxetine from human NET expressed in HEK293 cells; type: cell-based
Sodium-dependent noradrenaline transporter, sequence (P23975 whole entry): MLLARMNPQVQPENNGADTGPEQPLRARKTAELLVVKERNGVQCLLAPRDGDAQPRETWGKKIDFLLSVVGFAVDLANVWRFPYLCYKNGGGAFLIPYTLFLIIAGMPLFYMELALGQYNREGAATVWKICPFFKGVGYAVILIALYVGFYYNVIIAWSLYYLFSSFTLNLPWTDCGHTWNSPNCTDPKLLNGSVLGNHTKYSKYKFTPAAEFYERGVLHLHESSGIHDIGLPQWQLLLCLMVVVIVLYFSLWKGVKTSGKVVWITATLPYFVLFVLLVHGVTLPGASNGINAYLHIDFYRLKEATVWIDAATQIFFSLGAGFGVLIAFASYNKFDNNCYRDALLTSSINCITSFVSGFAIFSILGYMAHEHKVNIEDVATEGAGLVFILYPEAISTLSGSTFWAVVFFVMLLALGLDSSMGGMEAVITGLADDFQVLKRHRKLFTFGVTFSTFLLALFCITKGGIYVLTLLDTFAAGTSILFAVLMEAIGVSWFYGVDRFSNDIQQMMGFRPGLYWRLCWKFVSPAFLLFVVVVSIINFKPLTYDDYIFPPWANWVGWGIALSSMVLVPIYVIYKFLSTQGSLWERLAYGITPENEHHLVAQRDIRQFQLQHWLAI

[5] = biological target: Monoamine transporters; Norepinephrine & dopamine (Homo sapiens, UniProt Q01959+P23975); experiment: Selectivity of human NET over human DAT expressed in HEK293 cells; type: cell-based
[6] = Drug level in Rhesus monkey plasma assessed as unmetabolized fractions at 30 mins; type: ADME, cell-free, Macaca mulatta; conditions: read-out: Activity
[7] = Drug level in Rhesus monkey plasma assessed as unmetabolized fractions at 3 mins; type: ADME, cell-free, Macaca mulatta; conditions: read-out: Activity
[8] = Drug level in Rhesus monkey plasma assessed as unmetabolized fractions at 10 mins; type: ADME, cell-free, Macaca mulatta; conditions: read-out: Activity

Sodium-dependent serotonin transporter, sequence (P31645 whole entry): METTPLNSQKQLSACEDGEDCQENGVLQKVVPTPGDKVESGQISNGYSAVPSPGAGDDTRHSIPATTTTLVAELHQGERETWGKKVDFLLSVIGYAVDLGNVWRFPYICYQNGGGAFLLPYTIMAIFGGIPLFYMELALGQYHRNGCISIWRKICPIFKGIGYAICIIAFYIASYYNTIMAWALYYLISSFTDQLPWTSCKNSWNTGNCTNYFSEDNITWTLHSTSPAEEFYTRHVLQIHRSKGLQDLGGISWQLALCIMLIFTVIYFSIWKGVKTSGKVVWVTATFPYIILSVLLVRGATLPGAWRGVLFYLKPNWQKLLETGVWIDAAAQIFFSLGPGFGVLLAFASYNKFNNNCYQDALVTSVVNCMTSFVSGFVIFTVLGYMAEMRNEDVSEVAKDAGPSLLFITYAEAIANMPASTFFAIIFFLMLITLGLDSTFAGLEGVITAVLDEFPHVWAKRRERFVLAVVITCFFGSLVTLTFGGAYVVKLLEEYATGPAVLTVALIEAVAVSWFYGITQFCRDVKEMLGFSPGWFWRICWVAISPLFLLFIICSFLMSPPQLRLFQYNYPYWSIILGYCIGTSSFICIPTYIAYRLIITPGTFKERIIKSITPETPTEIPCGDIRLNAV
Sodium-dependent dopamine transporter, sequence (Q01959 whole entry): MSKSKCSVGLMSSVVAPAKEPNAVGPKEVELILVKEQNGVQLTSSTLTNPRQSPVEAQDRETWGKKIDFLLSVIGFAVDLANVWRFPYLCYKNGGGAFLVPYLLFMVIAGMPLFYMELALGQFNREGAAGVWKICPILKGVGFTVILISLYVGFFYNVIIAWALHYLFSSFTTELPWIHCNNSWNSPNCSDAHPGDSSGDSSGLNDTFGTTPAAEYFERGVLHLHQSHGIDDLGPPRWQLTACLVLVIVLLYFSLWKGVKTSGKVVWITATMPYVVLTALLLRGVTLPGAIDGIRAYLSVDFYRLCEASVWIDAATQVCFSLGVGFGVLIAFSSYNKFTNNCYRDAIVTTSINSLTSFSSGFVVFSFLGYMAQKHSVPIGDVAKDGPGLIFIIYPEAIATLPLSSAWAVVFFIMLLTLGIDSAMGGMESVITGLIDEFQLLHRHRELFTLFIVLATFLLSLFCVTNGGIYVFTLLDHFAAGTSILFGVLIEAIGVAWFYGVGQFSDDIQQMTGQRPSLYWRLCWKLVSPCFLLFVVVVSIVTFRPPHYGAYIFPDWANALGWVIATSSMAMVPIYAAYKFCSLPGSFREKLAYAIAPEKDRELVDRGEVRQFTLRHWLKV

SMILES: COC(=O)[C@@H]1[C@H]2CC[C@H](C[C@H]1c1ccc(C)cc1)N2
- Ki [1]: 136 nM
- Ki [2]: 11.5 nM
- NET over SERT selectivity ratio [3]: 28 nM
- Ki [4]: 4.88 nM
- NET over DAT selectivity ratio (no unit) [5]: 2.3 nM

SMILES: Cc1ccc([C@@H]2C[C@H]3CC[C@@H](N3)[C@H]2C(=O)O[11CH3])cc1F
- remaining at 0.5 h [6]: 1.6%
- remaining at 0.05 h [7]: 25%
- remaining at 10 min [8]: 7.5%

SMILES: COC(=O)[C@@H]1[C@H]2CC[C@H](C[C@H]1c1ccc(C)c(F)c1)N2
- Ki [1]: 42.8 nM
- Ki [2]: 6.42 nM
- NET over SERT selectivity ratio [3]: 24 nM
- Ki [4]: 1.78 nM
- NET over DAT selectivity ratio (no unit) [5]: 3.6 nM

SMILES: C=Cc1ccc([C@@H]2C[C@H]3CC[C@@H](N3)[C@H]2C(=O)OC)cc1
- Ki [1]: 9.04 nM
- Ki [2]: 10.1 nM
- NET over SERT selectivity ratio [3]: 1.9 nM
- Ki [4]: 4.67 nM
- NET over DAT selectivity ratio (no unit) [5]: 2.2 nM

SMILES: C#Cc1ccc([C@@H]2C[C@H]3CC[C@@H](N3)[C@H]2C(=O)OC)cc1
- Ki [1]: 3.45 nM
- Ki [2]: 2.26 nM
- NET over SERT selectivity ratio [3]: 1.8 nM
- Ki [4]: 1.86 nM
- NET over DAT selectivity ratio (no unit) [5]: 1.2 nM

SMILES: COC(=O)[C@@H]1[C@H]2CC[C@H](C[C@H]1c1ccc(I)cc1)N2
- Ki [1]: 4.16 nM
- Ki [2]: 2.25 nM
- NET over SERT selectivity ratio [3]: 2.1 nM
- Ki [4]: 1.98 nM
- NET over DAT selectivity ratio (no unit) [5]: 1.1 nM

From ChEMBL document CHEMBL1148010, “Synthesis and biological evaluation of 2beta,3alpha-(substituted phenyl)nortropanes as potential norepinephrine transporter imaging agents” (Bioorg Med Chem Lett, 2007)
